Test results published in publication PMC8322070, “A novel orally active HDAC6 inhibitor T-518 shows a therapeutic potential for Alzheimer’s disease and tauopathy in mice” (Scientific Reports, 2021).

Tests used:
[1] = test system: tubulin acetylation in mouse primary neural cultures; test: Tubulin acetylation in mouse primary neural culture (ELISA); format: cell-based; conditions: 24 h
Procedure: (§1) T-518, ACY-738, Ricolinostat, and Tubastatin A were synthesized in Takeda. For in vitro cellular experiments, the compounds were solubilized with DMSO and diluted in the culture medium at the indicated concentrations. For in vivo experiments, the compound was reconstituted in 0.5% methylcellulose and administered orally at the indicated doses. After administration, mouse hippocampus was isolated and homogenized in RIPA extraction buffer (50 mM Tris–HCl, 150 mM NaCl, 1% NP-40, 0.5% sodium deoxycholate, and 0.1% SDS, pH 8.0) supplemented with protease and phosphatase inhibitor cocktail (Thermo Fischer, Waltham, MA, USA). The homogenate was centrifuged at 10,000g for 15 min and the supernatant was taken as the RIPA-soluble fraction.
Primary cortical neurons were prepared from E14 C57BL/6J mouse embryos (CLIEA Japan, Inc., Tokyo, Japan) using papain-containing Neuron Dissociation Solutions (Fujifilm Wako, Tokyo, Japan). Isolated cells were suspended in Neurobasal Medium containing B-27 (Thermo Fisher) and seeded on poly-D-lysine-coated plates (Corning, NY, USA) under 5% CO2 at 37 °C for 6 days in vitro (DIV) prior to evaluation of HDAC6 inhibitors. Cells were treated with HDAC6 inhibitors at the indicated concentrations for 24 h and lysed in RIPA extraction buffer (50 mM Tris–HCl, 150 mM NaCl, 1% NP-40, 0.5% sodium deoxycholate, and 0.1% SDS, pH 8.0) supplemented with protease and phosphatase inhibitor cocktail (Thermo Fisher).
Acetylated α-tubulin and total tubulin levels were measured by sandwich ELISA. Ninety six-well plates (Microlite2+, Thermo) were coated with α-tubulin capture antibody (1:100) by overnight incubation at 4 °C, washed 4 times with PBS'T, treated with blocking buffer (1% bovine serum albumin in PBS'T) at 37 °C for 2 h, and washed another 4 times with PBS’T. Cell or tissues lysate was added to the wells and plates were incubated at 37 °C for 2 h. Plates were then washed 4 times with PBST, incubated with a detection antibody for acetylated tubulin or total α-tubulin diluted in blocking buffer at 37℃ for 1 h, rewashed 4 more times with PBST, incubated with a mouse secondary antibody conjugated to horseradish peroxidase (HRP) for 30 min, wash 4 times again with PBST, and then incubated with chemiluminescent substrate (SuperSignal).

[2] = Free fraction in a brain (Fu,b); format: in vitro ADME; conditions: data not shown
[3] = test system: tubulin acetylation in WT mice or HDAC6 KO mice; test: HDAC6 dependency of in vivo tubulin acetylation, WT and HDAC6 KO mice; parameters: species or system mouse; conditions: 300 mg/kg
Text: HDAC6 knockout (KO) mice were generated by deletion of a ~ 1.7-kbp region including exon15–20 of the Hdac6 gene using fertilized C57BL/6J eggs and the CRISPR-Cas9 system. […] Male hemizygous KO mice were selected by qPCR detection of the Hdac6 intron16 sequence (Figure S2A). The qPCR primers and probe sequences were as follows: FW primer; 5′-[…]-3′, RV primer; 5′-[…]-3′ and MGB probe; 5′-CCAGGCCATGTTTT-3′.
as §1
Acetylated α-tubulin and total tubulin levels were measured by sandwich ELISA. […]

P301S tau Tg mice = test: Tau accumulation in hippocampus by RAB-RIPA-FA extraction and Western blotting; format: in vivo, mouse; conditions: 3 mg/kg daily, from 6 to 9 months of age
Procedure: as §1
Cell lysate or in vivo protein samples were separated by 10% SDS-PAGE, then electrophoretically transferred to 0.45 μm poly-vinylidene difluoride membranes (Millipore). Membranes were blocked for 1 h in Blocking Reagent (TOYOBO, Osaka, Japan), probed with primary antibodies followed by labeling with HRP-coupled secondary antibodies (Amersham, Piscataway, NJ), and then visualized using chemiluminescence reagent (ECL; Amersham). Images were captured using ImageQuant LAS 4000 (GE healthcare Bio-Sciences, Marlborough, MA, USA). Quantitative densitometric analyses were conducted using ImageQuant TL (GE healthcare Bio-Sciences). […]

With `O=C1c2cc(-c3nnc(C(F)F)o3)cnc2CN1[C@@H]1CCCC[C@H]1NC(=O)C(F)(F)C(F)(F)F` [T-518, N-[(1R,2R)-2-{3-[5-(difluoromethyl)-1,3,4-oxadiazol-2-yl]-5-oxo-5H,6H,7H-pyrrolo[3,4-b]pyridin-6-yl}cyclohexyl]-2,2,3,3,3-pentafluoropropanamide] the “effect on tubulin acetylation” value ([1]; DIV6 mouse primary neural culture, 0.1–10 μM, ELISA) was “significantly and concentration-dependently elevates tubulin acetylation”, the “concentration at which elevation of tubulin acetylation is statistically significant” value ([1]; mouse neurons) was at least 0.1 µM and the fraction unbound [2] was 0.4. For the same molecule, the “tubulin acetylation in HDAC6 KO mice” value ([3]; 27-week-old male HDAC6 KO mice) was “had no effect”, the “tubulin acetylation in WT mice” value ([3]; 27-week-old male WT mice) was “significantly elevated tubulin acetylation” and the “RAB-soluble and RIPA-soluble tau fractions in hippocampus” value (P301S tau Tg mice) was “without affecting”. For the same molecule, the “accumulation of tau in the FA fraction (RIPA-insoluble tau) in hippocampus” value (P301S tau Tg mice) was “significantly decreased”.
